Test results reported in patent US20210369710A1, “MODULATORS OF MYC FAMILY PROTO-ONCOGENE PROTEIN” (Nalo Therapeutics, priority 2019, published 2021).

Key:
MycC Protein = molecular target: T1, MycC Protein (Homo sapiens, UniProt P01106); assay: Degradation of MycC protein, Western blot band density in cells; assay type: cell-based; conditions: HL-60 or SKNBE2 cells; 6 uL of compound (1 mM) added to 3 mL cells; 6 hours; Western blot band density (ImageJ)
T1 construct: endogenous in cells; host or cells: HL-60 or SKNBE2
T1 sequence (P01106 whole entry): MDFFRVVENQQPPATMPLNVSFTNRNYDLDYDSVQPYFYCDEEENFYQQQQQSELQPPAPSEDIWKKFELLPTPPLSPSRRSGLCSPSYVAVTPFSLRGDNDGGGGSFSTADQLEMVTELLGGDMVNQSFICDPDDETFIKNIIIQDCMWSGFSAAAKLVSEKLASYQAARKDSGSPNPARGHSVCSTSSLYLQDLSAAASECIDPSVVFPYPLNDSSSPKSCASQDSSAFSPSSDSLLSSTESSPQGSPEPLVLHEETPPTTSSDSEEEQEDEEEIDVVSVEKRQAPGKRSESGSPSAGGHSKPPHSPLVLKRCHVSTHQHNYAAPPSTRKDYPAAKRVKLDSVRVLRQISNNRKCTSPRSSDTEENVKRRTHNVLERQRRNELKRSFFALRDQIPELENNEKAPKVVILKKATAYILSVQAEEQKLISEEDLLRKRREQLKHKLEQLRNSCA
Protocol: (§1) In a T150 flask was plated either 2×10^6 of HL-60 (human leukemia cell line) or SKNBE2 (neuroblastoma cell line) cells in a total of 30 mL containing Roswell Park Memorial Institute (RPMI) 1640 Medium (Thermo Fisher, Cat. #11875-085), 10% Fetal Bovine Serum (FBS, Thermo Fisher: Cat. #10437-028), 1% Penicillin/streptomycin (Thermo Fisher: Cat. #10378016), and 1% Amophotericin B (Thermo Fisher, Cat. #15290026). The cells were split every 72 hours by reseeding the HL-60 or SKNBE2 cells, and the passage number was noted. It is noteworthy that cell cultures that were above 40 passages were not used, and most experiments were done with cells of less than 30 passages.
(§2) In a 6-well cell culture plate, a total of 3 mL of either 1×10^6 cells/mL of HL-60 or SKNBE2 cells were seeded, resulting in a total of 3×10^6 cells per well. To each well containing 3 mL of either HL-60 or SKNBE2 cell line was added 6 uL of MycN modulating compound (1 mM) and the resulting plate was shaken from left to right, and not swirled. After 6 hours, the cells were placed in a 15 mL falcon tube and spun at 500 Gs at 4° C. in a swinging bucket centrifuge. The medium was then carefully removed without disturbing the pellet. The pellet was then washed with 3 mLs of chilled phosphate buffered saline (PBS) and subjected to the spin cycle. PBS was then removed and the pellet was lysed in 200 uL of radioimmunoprecipitation (RIPA) lysis buffer (Thermo Fisher: Cat. #899000) that is supplemented with protease and phosphatase inhibitors (Thermo Fisher: Cat. #A32959). The cell lysate was then subjected to spinning in a centrifuge for 10 minutes at 13000G at 4° C. The supernatant was then carefully transferred to a fresh eppendorf tube without disturbing the pellet (˜180 uL). The protein concentration of the cell lysate was then determined by using a bicinchoninic acid (BCA assay) according to manufacturer's protocol (Thermo Fisher: Cat. #23227).
(§3) Cell lysate, approximately 25 ug-30 ug, was loaded per well in a 4-20% polyacrylamide gel (Biorad. Cat. #5671094). After running the dye front off of the gel, the gel was transferred to a nitrocellulose membrane (Biorad: Cat. #1704159) using the transblot turbo system (Biorad: Cat. #1704150) according to manufacturer's protocol. After transferring for 30 minutes, the membrane was blocked with 5% BSA for 1 hour at room temperature. The BSA was then washed off and the primary antibody of choice (1:500) was added, and the membrane was incubated with the primary antibody at 4° C. for overnight. The next morning, the primary antibody was removed and the membrane was washed with 1×-TBST for 10 minutes and repeated three more times. Following the last wash, a secondary antibody (Molecular Devices. Cat. #R8209 or R8208) was added at 1:5000 dilution and incubated for 1 hour at room temperature. Following the incubation with the secondary antibody, the membrane was washed with 1×-TBST for 10 minutes and repeated three more times. Following the last wash, the membrane was washed with de-ionized water twice and dried for at least two hours. Once the membrane is completely dry, the Molecular Devices Spectra Max western system was used to observe the bands. The western image was saved and the band density was measured with ImageJ software.

MycN Protein = molecular target: T2, MycN Protein (Homo sapiens, UniProt P04198); assay: Degradation of MycN protein, Western blot band density in cells; assay type: cell-based; conditions: HL-60 or SKNBE2 cells; 6 uL of compound (1 mM) added to 3 mL cells; 6 hours; Western blot band density (ImageJ)
T2 construct: endogenous in cells; host or cells: HL-60 or SKNBE2
T2 sequence (P04198 1-464): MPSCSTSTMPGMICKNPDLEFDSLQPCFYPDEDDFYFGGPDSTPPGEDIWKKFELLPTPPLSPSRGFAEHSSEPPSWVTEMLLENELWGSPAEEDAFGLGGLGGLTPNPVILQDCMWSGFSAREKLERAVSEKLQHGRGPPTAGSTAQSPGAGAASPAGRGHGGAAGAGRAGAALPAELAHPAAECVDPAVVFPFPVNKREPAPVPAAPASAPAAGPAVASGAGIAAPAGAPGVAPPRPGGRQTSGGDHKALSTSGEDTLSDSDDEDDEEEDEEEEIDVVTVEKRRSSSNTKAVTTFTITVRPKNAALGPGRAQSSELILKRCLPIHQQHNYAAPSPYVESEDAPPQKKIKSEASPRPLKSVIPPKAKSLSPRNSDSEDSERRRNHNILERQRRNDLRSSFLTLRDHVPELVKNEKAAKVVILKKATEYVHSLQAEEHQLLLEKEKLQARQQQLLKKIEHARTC
Protocol: as §1, §2, §3

Compound | % Degradation of MycC (MycC Protein) | % Degradation of MycN (MycN Protein) | Dmax at 2 µM (MycC Protein) [%] | Dmax at 2 µM (MycN Protein) [%]
Cc1cc(Nc2ccnc(NC3CCC(N)CC3)n2)n[nH]1 [Compound 6, N^2-((1R,4R)-4-aminocyclohexyl)-N^4-(5-methyl-1H-pyrazol-3-yl)pyrimidine-2,4-diamine] | ** (**: degradation 20-49%) | * (*: degradation <20%) |  | 
COCCN(c1nccc(Nc2cc(C3CC3)[nH]n2)n1)C1CCC(NC(=O)NC2Cc3ccc(C#N)cc3C2)CC1 [Compound 152, 1-(5-cyano-2,3-dihydro-1H-inden-2-yl)-3-((1R,4R)-4-((4-((5-cyclopropyl-1H-pyrazol-3-yl)amino)pyrimidin-2-yl)(2-methoxyethyl)amino)cyclohexyl)urea] | **** (****: degradation 80-100%) | **** (****: degradation 80-100%) |  | 
O=C(NC1CCN(Cc2ccccn2)CC1)N[C@H]1CC[C@H](Nc2nccc(Nc3cc(C4CCCC4)[nH]n3)n2)CC1 [Compound 72, 1-((1R,4R)-4-((4-((5-cyclopentyl-1H-pyrazol-3-yl)amino)pyrimidin-2-yl)amino)cyclohexyl)-3-(1-(pyridin-2-ylmethyl)piperidin-4-yl)urea] |  |  | 20 to 49 | < 20
Cc1cc(Nc2ccnc(N[C@H]3CC[C@H](NC(=O)N[C@@H]4CCC[C@@H](C(F)(F)F)C4)CC3)n2)n[nH]1 [Compound 120] |  |  | < 20 | < 20
CN(c1nccc(Nc2cc(C3CCCC3)[nH]n2)n1)C1CCC(NC(=O)NC2Cc3ccc(C#N)cc3C2)CC1 (racemic) [Compound 16 (Racemic), 1-(5-cyano-2,3-dihydro-1H-inden-2-yl)-3-((1R,4R)-4-((4-((5-cyclopentyl-1H-pyrazol-3-yl)amino)pyrimidin-2-yl)(methyl)amino)cyclohexyl)urea] | **** (****: degradation 80-100%) | **** (****: degradation 80-100%) |  | 
C/N=C(\Nc1cccc(C(F)(F)F)c1)N[C@H]1CC[C@H](Nc2nccc(Nc3cc(C4CCCC4)[nH]n3)n2)CC1 [Compound 83] |  |  | < 20 | < 20
CS(=O)(=O)[C@H]1CCCC(NC(=O)N[C@H]2CC[C@H](Nc3nccc(Nc4cc(C5CCCC5)[nH]n4)n3)CC2)C1 (stereo partly shown) [Compound 26] |  |  | < 20 | 20 to 49
O=C(NC1Cc2ccncc2C1)N[C@H]1CC[C@H](Nc2nccc(Nc3cc(C4CCCC4)[nH]n3)n2)CC1 (stereo partly drawn) [Compound 101, 1-((1R,4R)-4-((4-((5-cyclopentyl-1H-pyrazol-3-yl)amino)pyrimidin-2-yl)amino)cyclohexyl)-3-(6,7-dihydro-5H-cyclopenta[c]pyridin-6-yl)urea] |  |  | 80 to 100 | < 20
C/N=C(\Nc1cccc(C(F)(F)F)c1)N[C@H]1CC[C@H](Nc2nccc(Nc3cc(C)[nH]n3)n2)CC1 [Compound 112] |  |  | < 20 | < 20
CN(c1nccc(Nc2cc(C3CCCC3)[nH]n2)n1)C1CCC(NC(=O)NC2Cc3ccc(C#N)cc3C2)CC1 [Compound 16 (Fraction 2), 1-(5-cyano-2,3-dihydro-1H-inden-2-yl)-3-((1R,4R)-4-((4-((5-cyclopentyl-1H-pyrazol-3-yl)amino)pyrimidin-2-yl)(methyl)amino)cyclohexyl)urea] | **** (****: degradation 80-100%) | *** (***: degradation 50-79%) |  | 
CN(c1nccc(Nc2cc(C3CCCC3)[nH]n2)n1)C1CCC(NC(=O)N[C@H]2CCC[C@@H](C(F)(F)F)C2)CC1 (stereo partly drawn) [Compound 121 (Fraction 1), 1-((1R,4S)-4-((4-((5-cyclopentyl-1H-pyrazol-3-yl)amino)pyrimidin-2-yl)(methyl)amino)cyclohexyl)-3-((1S,3R)-3-(trifluoromethyl)cyclohexyl)urea] | *** (***: degradation 50-79%) | *** (***: degradation 50-79%) |  | 
O=C(NC1CCCS(=O)(=O)C1)N[C@H]1CC[C@H](Nc2nccc(Nc3cc(C4CCCC4)[nH]n3)n2)CC1 (stereo partly shown) [Compound 25] |  |  | < 20 | < 20
CN(c1nccc(Nc2cc(C3CC3)[nH]n2)n1)[C@H]1CC[C@H](NC(=O)NC2Cc3ccccc3C2)CC1 [Compound 150, 1-((1R,4R)-4-((4-((5-cyclopropyl-1H-pyrazol-3-yl)amino)pyrimidin-2-yl)(methyl)amino)cyclohexyl)-3-(2,3-dihydro-1H-inden-2-yl)urea] |  |  | 80 to 100 | 80 to 100
Cc1nc(-c2ccc3c(c2)CC(NC(=O)N[C@H]2CC[C@H](Nc4nccc(Nc5cc(C6CCCC6)[nH]n5)n4)CC2)C3)no1 (stereo partly drawn) [Compound 20, 1-((1R,4R)-4-((4-((5-cyclopentyl-1H-pyrazol-3-yl)amino)pyrimidin-2-yl)amino)cyclohexyl)-3-(5-(5-methyl-1,2,4-oxadiazol-3-yl)-2,3-dihydro-1H-inden-2-yl)urea] |  |  | 80 to 100 | 80 to 100
CC1(NC(=O)N[C@H]2CC[C@H](Nc3nccc(Nc4cc(C5CCCC5)[nH]n4)n3)CC2)CCOCC1 [Compound 38, 1-((1R,4R)-4-((4-((5-cyclopentyl-1H-pyrazol-3-yl)amino)pyrimidin-2-yl)amino)cyclohexyl)-3-(4-methyltetrahydro-2H-pyran-4-yl)urea] |  |  | 50 to 79 | 20 to 49
CS(=O)(=O)c1ccc2c(c1)CC(NC(=O)N[C@H]1CC[C@H](Nc3nccc(Nc4cc(C5CCCC5)[nH]n4)n3)CC1)C2 (stereo partly drawn) [Compound 3, 1-((1R,4R)-4-((4-((5-cyclopentyl-1H-pyrazol-3-yl)amino)pyrimidin-2-yl)amino)cyclohexyl)-3-(5-(methylsulfonyl)-2,3-dihydro-1H-inden-2-yl)urea] |  |  | 50 to 79 | 20 to 49
O=C(NC1CCS(=O)(=O)CC1)N[C@H]1CC[C@H](Nc2nccc(Nc3cc(C4CCCC4)[nH]n3)n2)CC1 [Compound 24] |  |  | 20 to 49 | < 20
CN(c1nccc(Nc2cc(C3CC3)[nH]n2)n1)[C@H]1CC[C@H](NC(=O)NC2Cc3ccc(C#N)cc3C2)CC1 (stereo partly drawn) [Compound 142, 1-(5-cyano-2,3-dihydro-1H-inden-2-yl)-3-((1R,4R)-4-((4-((5-cyclopropyl-1H-pyrazol-3-yl)amino)pyrimidin-2-yl)(methyl)amino)cyclohexyl)urea] |  |  | 80 to 100 | 80 to 100
N#Cc1cccc([C@H]2C[C@H](NC(=O)N[C@H]3CC[C@H](Nc4nccc(Nc5cc(C6CCOC6)[nH]n5)n4)CC3)C2)c1 (stereo partly shown) [Compound 53] |  |  | < 20 | < 20
O=C(NC1CCN(Cc2ccccn2)CC1)N[C@H]1CC[C@H](Nc2nccc(Nc3cc(C4CCOC4)[nH]n3)n2)CC1 (stereo partly drawn) [Compound 74, 1-(1-(pyridin-2-ylmethyl)piperidin-4-yl)-3-((1R,4R)-4-((4-((5-(tetrahydrofuran-3-yl)-1H-pyrazol-3-yl)amino)pyrimidin-2-yl)amino)cyclohexyl)urea] |  |  | < 20 | 20 to 49
